Assay results taken from patent publication US9527807B2, “Sulfonamide derivative and use thereof” (Takeda Pharmaceutical Company Limited, priority 2011, dated 2016).

Target: T1, AMPA receptor (human GluR1 flip/stargazin expressed in CHO-K1 cells) (Homo sapiens, UniProt P42261)
T1 construct: expressed in transfected cells; host or cells: CHO-K1
Experiment: AMPA receptor function enhancing activity using calcium influx as index
Assay type: cell-based
Conditions: change in fluorescence level in 3 min, 100% = 3 mM glutamic acid + 300 μM cyclothiazide, 0% = 3 mM glutamic acid only
Text: Human GluR1 flip cDNA was amplified by PCR using forward primer […] (SEQ ID NO: 1) and reverse primer […] (SEQ ID NO: 2) artificially synthesized using human brain-derived cDNA (BD Bio science) as a template. The amplified product was digested with restriction enzymes EcoRI, NotI (TAKARA SHUZO CO. LTD.), and incorporated into the same site of pcDNA3.1(+) (Invitrogen) to construct pcDNA3.1(+)/human GluR1 flip gene. Human stargazin cDNA was amplified by PCR using forward primer […] (SEQ ID NO: 3) and reverse primer. […] (SEQ ID NO: 4) artificially synthesized using human hippocampus cDNA as a template. The amplified product was digested with restriction enzymes XhoI, BamHI (TAKARA SHUZO CO. LTD.), and incorporated into the same site of pcDNA3.1(−) (Invitrogen) to construct pcDNA3.1 Zeo(−)/human stargazin gene.
(2) Construction of GluR1 Flip/Stargazin Expressing Cell
CHO-K1 cells passaged in a culture medium (Ham's F12 medium (Invitrogen) added with 10% inactivated fetal bovine serum (Morgate) and penicillin, streptomycin (Invitrogen)) were detached with 0.05% trypsin, 0.53 mM EDTA (Invitrogen) diluted with D-PBS(−). The detached cells were suspended in a culture medium, and recovered by a centrifugation operation at 1,000 rpm. The recovered cells were suspended again in D-PBS(−), and added to a 0.4 cm electroporation cuvette (BioRad). pcDNA3.1(+)/human GluR1 flip gene (5 μg) and pcDNA3.1 Zeo(−)/human stargazin gene (15 μg) were added, and the mixture was introduced into CHO-K1 cells using Gene Pulser II (BioRad) under the conditions of 950 μFd, […]. The introduced cells were cultured overnight in a culture medium and, the next day, plated in a 96 well plate at 250 cells/well using a selection medium (culture medium added with Zeocin (Invitrogen) to 250 μg/mL). Clones showing drug resistance were selected, and GluR1 flip/stargazin expressing clones were selected by an assay method using calcium influx as an index as shown below.
(3) Measurement Method of AMPA Receptor Function Enhancing Activity of Compound Using Calcium Influx as Index
CHO-K1/GluR1 flip/stargazin expressing cells were plated on a 384 well black transparent bottom plate (FMAT4307723) at 0.5×10^4 cells/well, and cultured in a 37° C., CO2 incubator (SANYO Electric Co., Ltd.) for 2 days. The medium in the cell plate was removed, and a calcium indicator (Calcium 4 Assay Kit, Molecular. Devices) containing 1.25 mM probenecid (Invitrogen) was added at 25 μL/well and the well was left standing in 37° C., CO2 incubator for 1 hr. The cell plate was set in FLITRtetra (Molecular Devices), a mixture (12.5 μL) of 9 mM glutamic acid diluted with assay buffer B (HBSS (Invitrogen), 0.1% BSA, 10 mM HEPES) and a test compound was added, and the amount of change in fluorescence level in 3 min was measured. In the definition here, the amount of change in fluorescence level of well added with glutamic acid at final concentration 3 mM and 300 μM cyclothiazide (TOCRIS) is 100%, the amount of change in fluorescence level of well added only with glutamic acid at final concentration 3 mM is 0%, and the compound activity was calculated according to the following formula. activity (%)=(X−C)/(T−C)×100 T: amount of change in fluorescence level of well added with glutamic acid at final concentration 3 mM and 300 μM cyclothiazide C: amount of change in fluorescence level of well added only with glutamic acid at final concentration 3 mM X: amount of change in fluorescence level of well added with to test compound

T1 sequence (P42261 19-906 isoform P42261-2 limits assumed): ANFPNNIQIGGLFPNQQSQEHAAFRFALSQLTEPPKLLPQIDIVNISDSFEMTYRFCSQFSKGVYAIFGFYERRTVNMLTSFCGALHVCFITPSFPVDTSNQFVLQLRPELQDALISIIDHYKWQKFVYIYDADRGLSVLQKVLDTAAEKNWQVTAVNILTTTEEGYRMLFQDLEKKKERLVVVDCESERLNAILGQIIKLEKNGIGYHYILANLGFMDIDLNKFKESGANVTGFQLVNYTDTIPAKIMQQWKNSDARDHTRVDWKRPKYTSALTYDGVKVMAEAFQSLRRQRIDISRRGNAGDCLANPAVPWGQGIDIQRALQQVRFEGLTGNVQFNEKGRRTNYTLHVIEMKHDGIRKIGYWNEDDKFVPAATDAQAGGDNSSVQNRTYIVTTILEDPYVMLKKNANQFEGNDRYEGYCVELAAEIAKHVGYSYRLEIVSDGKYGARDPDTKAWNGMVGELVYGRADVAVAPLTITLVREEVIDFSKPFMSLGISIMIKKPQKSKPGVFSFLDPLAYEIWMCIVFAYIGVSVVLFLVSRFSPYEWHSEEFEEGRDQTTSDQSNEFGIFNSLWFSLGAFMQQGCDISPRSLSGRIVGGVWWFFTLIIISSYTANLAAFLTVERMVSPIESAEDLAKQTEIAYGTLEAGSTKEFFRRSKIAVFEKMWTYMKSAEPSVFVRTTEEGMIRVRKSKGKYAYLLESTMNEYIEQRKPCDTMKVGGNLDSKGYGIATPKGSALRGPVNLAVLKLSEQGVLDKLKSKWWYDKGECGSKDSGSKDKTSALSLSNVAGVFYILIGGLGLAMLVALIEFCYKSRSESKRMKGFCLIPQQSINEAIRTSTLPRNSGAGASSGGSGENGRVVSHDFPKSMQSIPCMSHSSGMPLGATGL
T1 sequence (Q9Y698 whole entry partner): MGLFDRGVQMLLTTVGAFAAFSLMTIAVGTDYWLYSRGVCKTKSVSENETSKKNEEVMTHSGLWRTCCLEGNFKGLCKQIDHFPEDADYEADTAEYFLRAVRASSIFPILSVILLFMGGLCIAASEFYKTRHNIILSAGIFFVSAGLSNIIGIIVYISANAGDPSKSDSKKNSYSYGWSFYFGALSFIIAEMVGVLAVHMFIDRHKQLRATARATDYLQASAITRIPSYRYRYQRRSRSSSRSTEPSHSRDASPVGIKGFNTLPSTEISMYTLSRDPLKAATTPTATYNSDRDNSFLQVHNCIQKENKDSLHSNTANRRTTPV

Compound | activity (%)
CS(=O)(=O)N[C@H]1CCOC[C@@H]1COc1ccc(-c2ccc(Cl)cn2)c(F)c1 (racemic) [Example 244, N-[(3RS,4SR)-3-{[4-(5-chloropyridin-2-yl)-3-fluorophenoxy]methyl}tetrahydro-2H-pyran-4-yl]methanesulfonamide] | 96%
CCS(=O)(=O)N[C@H]1CCC(F)(F)C[C@@H]1COc1ccc(-n2ccc(C)n2)cc1 (relative stereo) [Example 142, trans-N-[4,4-difluoro-2-{[4-(3-methyl-1H-pyrazol-1-yl)phenoxy]methyl}cyclohexyl]ethanesulfonamide] | 54%
CCS(=O)(=O)N[C@H]1CCN(C(C)=O)C[C@@H]1COc1ccc(-n2cccn2)cc1 (relative stereo) [Example 3, trans-N-[1-acetyl-3-{[4-(1H-pyrazol-1-yl)phenoxy]methyl}piperidin-4-yl]ethanesulfonamide] | 57%
CCS(=O)(=O)N[C@H]1CCSC[C@@H]1COc1ccc(C2CCOCC2)cc1 [Example 529, N-((3S,4S)-3-((4-(tetrahydro-2H-pyran-4-yl)phenoxy)methyl)tetrahydro-2H-thiopyran-4-yl)ethanesulfonamide] | 89%
Cc1nc(-c2ccc(OC[C@H]3COCC[C@@H]3NS(C)(=O)=O)cc2)cs1 (racemic) [Example 263, N-[(3RS,4SR)-3-{[4-(2-methyl-1,3-thiazol-4-yl)phenoxy]methyl}tetrahydro-2H-pyran-4-yl]methanesulfonamide] | 66%
CC(C)S(=O)(=O)N[C@H]1CCCC[C@@H]1COc1ccc(C2CC2)cc1 (relative stereo) [Example 21, trans-N-{2-[(4-cyclopropylphenoxy)methyl]cyclohexyl}propane-2-sulfonamide] | 82%
Cc1cnc(-c2ccc(OC[C@H]3OCCC[C@@H]3NS(=O)(=O)C3CC3)cc2)s1 (racemic) [Example 192, 1,5-anhydro-4-[(cyclopropylsulfonyl)amino]-2,3,4-trideoxy-6-O-[4-(5-methyl-1,3-thiazol-2-yl)phenyl]-DL-erythro-hexitol] | 74%
CCS(=O)(=O)N[C@H]1CCC[C@@H]1COc1ccc(C(C)C)cc1 (relative stereo) [Example 15, trans-N-[2-{[4-(1-methylethyl)phenoxy]methyl}cyclopentyl]ethanesulfonamide] | 88%
CS(=O)(=O)N[C@H]1CCC(F)(F)C[C@@H]1COc1ccc(-c2ccc(C#N)cn2)cc1 [Example 268, N-[(1S,2S)-2-{[4-(5-cyanopyridin-2-yl)phenoxy]methyl}-4,4-difluorocyclohexyl]methanesulfonamide] | 101%
CCS(=O)(=O)N[C@H]1COCC[C@@H]1COc1ccc(C(C)C)cc1 (single isomer, unassigned) [Example 110, trans-N-[4-{[4-(1-methylethyl)phenoxy]methyl}tetrahydro-2H-pyran-3-yl]ethanesulfonamide] | 88%
O=S(=O)(N[C@H]1CCOC[C@@H]1COc1ccc(-c2ncc(F)cc2F)cc1)C1CC1 (racemic) [Example 362, N-[(3RS,4SR)-3-{[4-(3,5-difluoropyridin-2-yl)phenoxy]methyl}tetrahydro-2H-pyran-4-yl]cyclopropanesulfonamide] | 96%

More lines, now with the values ahead:

activity (%) | Compound
98% | CS(=O)(=O)N[C@H]1COCC[C@@H]1COc1ccc(-c2ncc(F)cn2)cc1 [Example 283, N-[(3R,4S)-4-{[4-(5-fluoropyrimidin-2-yl)phenoxy]methyl}tetrahydro-2H-pyran-3-yl]methanesulfonamide]
90% | CCS(=O)(=O)N[C@H]1CCC(F)(F)C[C@@H]1COc1ccc(-n2cccn2)cc1 (relative stereo) [Example 130, trans-N-[4,4-difluoro-2-{[4-(1H-pyrazol-1-yl)phenoxy]methyl}cyclohexyl]ethanesulfonamide]
82% | CS(=O)(=O)N[C@H]1CCC(F)(F)C[C@@H]1COc1ccc(-c2ccc(C#N)cn2)cc1 (racemic) [Example 260, N-[(1SR,2SR)-2-{[4-(5-cyanopyridin-2-yl)phenoxy]methyl}-4,4-difluorocyclohexyl]methanesulfonamide]
78% | CS(=O)(=O)N[C@H]1CCOC[C@@H]1COc1ccc(-n2cc(C(F)(F)F)cn2)cc1 [Example 265, N-[(3R,4S)-3-({4-[4-(trifluoromethyl)-1H-pyrazol-1-yl]phenoxy}methyl)tetrahydro-2H-pyran-4-yl]methanesulfonamide]
66% | CCS(=O)(=O)N[C@H]1CCOC[C@@H]1COc1ccc(-n2nccc2C)cc1 (racemic) [Example 431, N-[(3RS,4SR)-3-{[4-(5-methyl-1H-pyrazol-1-yl)phenoxy]methyl}tetrahydro-2H-pyran-4-yl]ethanesulfonamide]
94% | CCS(=O)(=O)N[C@H]1CCCO[C@@H]1COc1ccc(-c2ncc(F)cn2)cc1 [Example 399, 1,5-anhydro-2,3,4-trideoxy-4-[(ethylsulfonyl)amino]-6-O-[4-(5-fluoropyrimidin-2-yl)phenyl]-D-erythro-hexitol]
85% | CCS(=O)(=O)N[C@H]1CCOC[C@@H]1COc1ccc(C(C)=O)cc1F (relative stereo) [Example 136, trans-N-{3-[(4-acetyl-2-fluorophenoxy)methyl]tetrahydro-2H-pyran-4-yl}ethanesulfonamide]
89% | CCS(=O)(=O)N[C@H]1CCOC[C@@H]1COc1ccc(-n2cc(Cl)cn2)cc1F [Example 454, N-[(3R,4S)-3-{[4-(4-chloro-1H-pyrazol-1-yl)-2-fluorophenoxy]methyl}tetrahydro-2H-pyran-4-yl]ethanesulfonamide]
77% | CCS(=O)(=O)N[C@H]1CCCO[C@@H]1COc1ccc(-c2ncc(C)s2)cc1 (racemic) [Example 181, 1,5-anhydro-2,3,4-trideoxy-4-[(ethylsulfonyl)amino]-6-O-[4-(5-methyl-1,3-thiazol-2-yl)phenyl]-DL-erythro-hexitol]
38% | CCS(=O)(=O)N[C@H]1CCN(C(C)=O)C[C@@H]1COc1ccc(CCC#N)cc1 (relative stereo) [Example 2, trans-N-[1-acetyl-3-{[4-(2-cyanoethyl)phenoxy]methyl}piperidin-4-yl]ethanesulfonamide]
88% | CS(=O)(=O)N[C@H]1CCSC[C@@H]1COc1ccc(C2CCOCC2)cc1 [Example 519, N-((3S,4S)-3-((4-(tetrahydro-2H-pyran-4-yl)phenoxy)methyl)tetrahydro-2H-thiopyran-4-yl)methanesulfonamide]
96% | O=S(=O)(N[C@H]1CCCO[C@@H]1COc1ccc(-c2ccc(F)cn2)cc1)C1CC1 [Example 282, 1,5-anhydro-4-[(cyclopropylsulfonyl)amino]-2,3,4-trideoxy-6-β-[4-(5-fluoropyridin-2-yl)phenyl]-D-erythro-hexitol]
91% | O=S(=O)(N[C@H]1CCOC[C@@H]1COc1ccc(-c2ncc(Cl)s2)cc1)C1CC1 [Example 312, N-[(3R,4S)-3-{[4-(5-chloro-1,3-thiazol-2-yl)phenoxy]methyl}tetrahydro-2H-pyran-4-yl]cyclopropanesulfonamide]
86% | CCS(=O)(=O)N[C@H]1CCCO[C@@H]1COc1ccc(C2CC2)cc1 (racemic) [Example 4, 1,5-anhydro-6-O-(4-cyclopropylphenyl)-2,3,4-trideoxy-4-[(ethylsulfonyl)amino]-DL-erythrohexitol]
